Results from US20230355597A1, “COMPOUNDS, COMPOSITIONS, AND METHODS FOR THE TREATMENT AND PREVENTION OF AVIAN PATHOGENIC E. COLI (APEC)” (OHIO STATE INNOVATION FOUNDATION, priority 2018, published 2023).
Converted amounts (≈) assume the structure as drawn. Marks after values point to notes of the source that are not given here.

How the values were obtained:
[1] = system: AI-2 activity of APEC O1; assay: AI-2 bioluminescence indicator assay (V. harveyi BB170); settings: Escherichia coli, read-out: Inhibition % of AI-2 activity, APEC O1, 100 µM
[2] = system: Rif^r APEC O78; assay: Wax moth (Galleria mellonella) larva infection model (AI-2 inhibitors); settings: 48 h post treatment
[3] = system: Rif^r APEC O78; assay: In vivo screening of quorum sensing inhibitors in APEC infected broiler chickens
[4] = system: AI-2 activity of APEC O2; assay: AI-2 bioluminescence indicator assay (V. harveyi BB170); settings: Escherichia coli, read-out: Inhibition % of AI-2 activity
[5] = system: AI-2 activity of APEC O109; assay: as above; settings: Escherichia coli, read-out: Inhibition % of AI-2 activity
[6] = system: APEC O2 in HD-11 cells; assay: Intracellular survival assay (AI-2 inhibitors); settings: O2, HD-11, 100 µM, 6 h
[7] = system: Caco-2 cells; assay: LDH assay of AI-2 inhibitors; settings: Caco-2, 100 µM, 24 h
[8] = system: AI-2 activity of APEC O78; assay: AI-2 bioluminescence indicator assay (V. harveyi BB170); settings: Escherichia coli, read-out: Inhibition % of AI-2 activity
[9] = system: AI-2 activity of APEC O18; assay: as above; settings: Escherichia coli, read-out: Inhibition % of AI-2 activity, APEC O18, 100 µM
[10] = system: AI-2 activity of APEC O8; assay: as above; settings: Escherichia coli, read-out: Inhibition % of AI-2 activity, APEC O8, 100 µM
[11] = system: QS and virulence associated genes of APEC O78; assay: qRT-PCR of QS-regulated and virulence factors genes; assay type: cell-based, avian pathogenic Escherichia coli (APEC); settings: 100 µM, 10 h
Method: Quantitative real-time reverse transcription PCR (qRT-PCR). […] APEC O78 was grown in the presence of 100 µM of each compound in a 96-well plate at 37° C. for 10 h. APEC O78 culture treated with 1 µL of 100% DMSO was used as […]. Total RNA was extracted from duplicate wells for each compound (200 µL) using a miRNeasy Mini Kit (Qiagen). RNA quality and quantity was determined by nanodrop 2000 C spectrophotometer (Thermo scientific). Traces of DNA was removed using Genomic DNA removal mix (Qiagen). Approximately, 5 µg of purified RNA was used to synthesize cDNA using the Qiagen RT^2 First Strand Kit (Qiagen). The qRT-PCR was performed using SensiMix™ SYBER® Hi-Rox qPCR Master Mix (Bioline) according to manufacturer instructions in a realplex^2 mastercycler (Eppendorf) with 55° C. annealing temperature. Gene-specific primers were designed using PrimerQuest Tool and obtained from integrated DNA technologies (IDT). The data were normalized to the house-keeping gene, glyceraldehyde-3-phosphate dehydrogenase (GAPDH). The relative fold change was calculated using the ΔΔCt method. Three independent experiments were conducted.

[12] = system: intracellular APEC O1 in HD11 cells; assay: Intracellular survival assay (cidal SMs); settings: O1, HD11, 6 h treatment; superscript = multiple of MIC
[13] = system: intracellular APEC O1 in THP-1 cells; assay: Intracellular survival assay (cidal SMs); settings: O1, THP-1, 6 h treatment; superscript = multiple of MIC
[14] = system: APEC O8; assay type: cell-based, avian pathogenic Escherichia coli (APEC); settings: APEC O8, M63 media; MIC/MBC
[15] = system: intracellular APEC O78, O2, and O1 in infected Caco-2, HD11, and THP1 cells; assay: Intracellular survival assay (cidal SMs), summary over serotypes and cells; settings: overall ranking
[16] = system: APEC O78; assay type: cell-based, avian pathogenic Escherichia coli (APEC); settings: APEC O78, M63 media; cell prints MIC/MBC
[17] = system: intracellular APEC O2 in THP-1 cells; assay: Intracellular survival assay (cidal SMs); settings: O2, THP-1, 6 h treatment; superscript = multiple of MIC
[18] = system: APEC O109; assay type: cell-based, avian pathogenic Escherichia coli (APEC); settings: APEC O109, M63 media; MIC/MBC
[19] = system: APEC O2; assay type: cell-based, avian pathogenic Escherichia coli (APEC); settings: APEC O2, M63 media; MIC/MBC
[20] = system: intracellular APEC O78 in HD11 cells; assay: Intracellular survival assay (cidal SMs); settings: O78, HD11, 6 h treatment; superscript = multiple of MIC
[21] = system: biofilm embedded APEC O78; assay: MBEC High-throughput assay; assay type: cell-based, avian pathogenic Escherichia coli (APEC)
[22] = system: APEC O115; assay type: cell-based, avian pathogenic Escherichia coli (APEC); settings: APEC O115, M63 media; MIC/MBC
[23] = system: APEC O18; assay type: cell-based, avian pathogenic Escherichia coli (APEC); settings: APEC O18, M63 media; MIC/MBC
[24] = system: APEC O78; assay: Loss of 260/280 nm absorbing materials assay; assay type: cell-based, avian pathogenic Escherichia coli (APEC); settings: 2X MBC, 1 h, *P<0.05 vs DMSO
[25] = system: APEC O1; assay type: cell-based, avian pathogenic Escherichia coli (APEC); settings: APEC O1, M63 media; MIC/MBC
[26] = system: APEC O78; assay: Confocal microscopy bacterial cytological profiling; assay type: cell-based, avian pathogenic Escherichia coli (APEC); settings: 2X MBC
Method: Confocal and scanning electron microscopy. Confocal microscopy was used for bacterial cytological profiling (BCP) to identify the cellular pathways targeted by SMs as described previously. […] After incubation, treated cultures were centrifuged, washed, and resuspended in 100 μL PBS. […] Cultures were then centrifuged, washed, and resuspended in PBS to 1⁄10th volume of the original cultures.

[27] = system: intracellular APEC O2 in Caco-2 cells; assay: Intracellular survival assay (cidal SMs); settings: O2, Caco-2, 6 h treatment; superscript = multiple of MIC
[28] = system: APEC O35; assay type: cell-based, avian pathogenic Escherichia coli (APEC); settings: APEC O35, M63 media; MIC/MBC
[29] = system: intracellular APEC O78 in Caco-2 cells; assay: Intracellular survival assay (cidal SMs); settings: O78, Caco-2, 6 h treatment; superscript = multiple of MIC
[30] = system: APEC O15; assay type: cell-based, avian pathogenic Escherichia coli (APEC); settings: APEC O15, M63 media; MIC/MBC
[31] = system: intracellular APEC O78 in THP-1 cells; assay: Intracellular survival assay (cidal SMs); settings: O78, THP-1, 6 h treatment; superscript = multiple of MIC
[32] = system: APEC O1-63; assay type: cell-based, avian pathogenic Escherichia coli (APEC); settings: APEC O1-63, M63 media; MIC/MBC
[33] = system: APEC O78-53; assay type: cell-based, avian pathogenic Escherichia coli (APEC); settings: APEC O78-53, M63 media; MIC/MBC
[34] = system: intracellular APEC O2 in HD11 cells; assay: Intracellular survival assay (cidal SMs); settings: O2, HD11, 6 h treatment; superscript = multiple of MIC
[35] = system: intracellular APEC O1 in Caco-2 cells; assay: Intracellular survival assay (cidal SMs); settings: O1, Caco-2, 6 h treatment; superscript = multiple of MIC
[36] = system: APEC O2-211; assay type: cell-based, avian pathogenic Escherichia coli (APEC); settings: APEC O2-211, M63 media; MIC/MBC
[37] = system: Rif^r APEC O78; assay: In vivo efficacy of growth inhibitors in APEC infected broiler chickens

Compound: O=[N+]([O-])c1cccc(S(=O)(=O)Nc2ccc(Br)cc2)c1 [C6, N-(4-bromophenyl)-3-nitrobenzenesulfonamide]
- inhibition at 100 µM [1]: ≥ 75%
- larval death [2]: no larval death
- reduction in chicken mortality ([3]; DMSO control mortality normalized to 100%): did not reduce
- average lesion score reduction ([3]; liver, heart, lung and airsac, vs DMSO): 0.7-1.3
- Mortality rate (%) ([3]; oral gavage once a day, day 4 to day 8, DMSO control 66.7%): 66.7%
- Reduction in APEC lesions severity, Air-sacs (%) ([3]; vs DMSO treated control): 53.3%
- Reduction in APEC lesions severity, Heart (%) ([3]; vs DMSO treated control): 43.8%
- Reduction in APEC lesions severity, Liver (%) ([3]; vs DMSO treated control): 54.5%
- Reduction in APEC lesions severity, Lung (%) ([3]; vs DMSO treated control): 66.7%
- inhibition at 100 µM [4]: 93%
- inhibition at 100 µM [5]: 60%
- clearance of intracellular APEC [6]: 100%
- reduction of intracellular survival ([6]; vs DMSO): 3.3 logs
- toxicity (LDH) [7]: 27%
- inhibition at 100 µM [8]: 92%
- inhibition at 100 µM [9]: ≥ 75%
- inhibition at 100 µM [10]: ≥ 75%
- expression of cheW [11]: down-regulated
- expression of csrA [11]: down-regulated
- expression of fliP [11]: down-regulated
- expression of fpr [11]: down-regulated
- expression of murD [11]: down-regulated

Compound: CC(=O)OC(C(Br)C(=O)c1ccc([N+](=O)[O-])cc1)C(Cl)(Cl)Cl (stereo not drawn) [SM10]
- SMs intracellular APEC clearance concentration [12]: >100 µM
- SMs intracellular APEC clearance concentration [13]: >100 µM
- MBC [14]: 50 µM (≈ 21.7 µg/mL)
- MIC [14]: 50 µM (≈ 21.7 µg/mL)
- effectiveness in clearing intracellular APEC serotypes in all tested cells [15]: most effective
- MBC [16]: 50 µM (≈ 21.7 µg/mL)
- MIC [16]: 25 µM (≈ 10.8 µg/mL)
- SMs intracellular APEC clearance concentration [17]: 50^b µM
- MBC [18]: 50 µM (≈ 21.7 µg/mL)
- MIC [18]: 25 µM (≈ 10.8 µg/mL)
- MBC [19]: 50 µM (≈ 21.7 µg/mL)
- MIC [19]: 25 µM (≈ 10.8 µg/mL)
- SMs intracellular APEC clearance concentration [20]: 50^b µM
- reduction of biofilms embedded APEC ([21]; at 1X MIC): significantly (P<0.05) reduced
- MBEC ([21]; biofilm embedded APEC O78, superscript = multiple of MIC (footnote)): >200 µM
- MBC [22]: 50 µM (≈ 21.7 µg/mL)
- MIC [22]: 25 µM (≈ 10.8 µg/mL)
- MBC [23]: 100 µM (≈ 43.3 µg/mL)
- MIC [23]: 25 µM (≈ 10.8 µg/mL)
- Absorbance 260 ([24]; 260 nm absorbing material in supernatant): 3.98*
- Absorbance 280 ([24]; 280 nm absorbing material in supernatant): 2.73*
- MBC [25]: 25 µM (≈ 10.8 µg/mL)
- MIC [25]: 25 µM (≈ 10.8 µg/mL)
- cytological profile (confocal, FM4-64 / SYTO-9) [26]: PG synthesis inhibitors
- SMs intracellular APEC clearance concentration [27]: 100^c µM
- MBC [28]: 50 µM (≈ 21.7 µg/mL)
- MIC [28]: 25 µM (≈ 10.8 µg/mL)
- SMs intracellular APEC clearance concentration [29]: 100^c µM
- MBC [30]: 100 µM (≈ 43.3 µg/mL)
- MIC [30]: 50 µM (≈ 21.7 µg/mL)
- SMs intracellular APEC clearance concentration [31]: 100^c µM
- MBC [32]: 100 µM (≈ 43.3 µg/mL)
- MIC [32]: 50 µM (≈ 21.7 µg/mL)
- MBC [33]: 50 µM (≈ 21.7 µg/mL)
- MIC [33]: 25 µM (≈ 10.8 µg/mL)
- SMs intracellular APEC clearance concentration [34]: 100^c µM
- SMs intracellular APEC clearance concentration [35]: 100^c µM
- MBC [36]: 50 µM (≈ 21.7 µg/mL)
- MIC [36]: 25 µM (≈ 10.8 µg/mL)
- reduction of average APEC load in internal organs ([37]; average of liver, heart, lung and kidney, vs untreated control): 1.3 logs
- reduction of APEC induced mortality ([37]; oral gavage twice a day, 5 days, untreated mortality (58.34%) normalized to 100%): 71.42%
- reduction of APEC lesions severity (%), Air-sacs (airsacculitis) ([37]; untreated control = 100%): -52.9%
- reduction of APEC lesions severity (%), Heart (pericarditis) ([37]; untreated control = 100%): -28%
- reduction of APEC lesions severity (%), Liver (perihepatitis) ([37]; untreated control = 100%): 20%
- reduction of APEC lesions severity (%), Lung (lung congestion) ([37]; untreated control = 100%): 0%
- reduction of APEC load, Heart ([37]; vs untreated control): 1.0 log CFU/g of tissues
- reduction of APEC load, Kidney ([37]; vs untreated control): 2.4 log CFU/g of tissues
- reduction of APEC load, Liver ([37]; vs untreated control): 0.8 log CFU/g of tissues
- reduction of APEC load, Lung ([37]; vs untreated control): 1.4 log CFU/g of tissues
- Body weight gain (BWG) ([37]; weight of live chickens before necropsy minus weight before treatment): 220.75±38.93
